From patent publication US10077261B2, “Imidazolin-5-one derivative useful as FASN inhibitors for the treatment of cancer” (Janssen Pharmaceutica NV, priority 2012, dated 2018) come the findings set out here.

Assay [1] has as its target T1, hFASN enzyme (full length) (Homo sapiens, UniProt P49327).
T1 construct: 10 μL hFASN enzyme (full length, 300 ng, purified in house); made in house
The experiment in a line: Fatty Acid Synthase (FASN) inhibition scintillation proximity assay. The following applies: for inhibition at 10 µM: read-out: Human FASN % inhibition @ 10 μM, 10 μM test compound; for IC50: read-out: Human FASN pIC50 (converted). In kind it is biochemical. In outline: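 Purified full-length hFASN (300 ng) converts ^3H-acetyl-CoA plus malonyl-CoA to ^3H-palmitate in 100 mM KH2PO4 pH 7.5, 1 mM DTT; compounds tested at 0.01–30 μM. Product captured on streptavidin imaging beads and read by LEADseeker at 610 nm after ≥24 h; 4-parameter logistic fit versus controls.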

Assay [2] addresses Fatty Acid Synthase Keto-reductase Domain (FASN KR) (Homo sapiens, UniProt P49327). As to the kind of experiment: Fatty Acid Synthase keto-reductase domain (FASN KR) inhibition, NADPH oxidation at 340 nm.
Procedure: After 20 minutes incubation at room temperature the plate was measured again (T2).
The decrease in absorbance was calculated as (Absorbance before incubation T1)−(Absorbance following incubation T2).
A plot of Controlmin versus test compound concentration was fitted to a 4-parameter logistic curve using a non-linear least squares regression method.
The test system of assay [3] is PC-3M-Luc-C6 prostate cells. The experiment in a line: In vitro PC-3M-Luc-C6 prostate cell proliferation assay in lipid reduced medium. Type of assay: cell-based. The following applies: 96 h, read-out: pIC50 PC-3M-Luc-C6 prostate cell (converted).
The subject of assay [4] is LNCaP-Vancouver prostate cells. The experiment in a line: In vitro LNCaP Vancouver prostate cell proliferation assay in lipid reduced medium. In kind it is cell-based. The following applies: read-out: pIC50 LNCaP_Vancouver prostate cell (converted).
Assay [5] has as its system A2780 ovarian cells. As to the kind of experiment: A2780 ovarian cell proliferation assay in lipid reduced medium, without palmitate (MTT). Type of assay: cell-based. The following applies: Homo sapiens, A2780, 96 h; read-out: pIC50 A2780 Ovarian Cell, Without Palmitate (converted).
Assay [6] has as its system A2780 ovarian cells. The experiment in a line: A2780 ovarian cell proliferation assay in lipid reduced medium, with palmitate (MTT). Type of assay: cell-based. The following applies: Homo sapiens, A2780, 96 h; read-out: pIC50 A2780 Ovarian Cell, With Palmitate (converted). The essentials:
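Seeded cells were switched next day to lipid-reduced serum, exposed to compound and 25 μM palmitate complexed with fatty-acid-free BSA, and incubated 96 h. Proliferation was then determined by MTT absorbance at 544 nm, with a best-fit curve of signal against concentration.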

Each structure is given as a SMILES string.

T1 sequence (P49327 whole entry): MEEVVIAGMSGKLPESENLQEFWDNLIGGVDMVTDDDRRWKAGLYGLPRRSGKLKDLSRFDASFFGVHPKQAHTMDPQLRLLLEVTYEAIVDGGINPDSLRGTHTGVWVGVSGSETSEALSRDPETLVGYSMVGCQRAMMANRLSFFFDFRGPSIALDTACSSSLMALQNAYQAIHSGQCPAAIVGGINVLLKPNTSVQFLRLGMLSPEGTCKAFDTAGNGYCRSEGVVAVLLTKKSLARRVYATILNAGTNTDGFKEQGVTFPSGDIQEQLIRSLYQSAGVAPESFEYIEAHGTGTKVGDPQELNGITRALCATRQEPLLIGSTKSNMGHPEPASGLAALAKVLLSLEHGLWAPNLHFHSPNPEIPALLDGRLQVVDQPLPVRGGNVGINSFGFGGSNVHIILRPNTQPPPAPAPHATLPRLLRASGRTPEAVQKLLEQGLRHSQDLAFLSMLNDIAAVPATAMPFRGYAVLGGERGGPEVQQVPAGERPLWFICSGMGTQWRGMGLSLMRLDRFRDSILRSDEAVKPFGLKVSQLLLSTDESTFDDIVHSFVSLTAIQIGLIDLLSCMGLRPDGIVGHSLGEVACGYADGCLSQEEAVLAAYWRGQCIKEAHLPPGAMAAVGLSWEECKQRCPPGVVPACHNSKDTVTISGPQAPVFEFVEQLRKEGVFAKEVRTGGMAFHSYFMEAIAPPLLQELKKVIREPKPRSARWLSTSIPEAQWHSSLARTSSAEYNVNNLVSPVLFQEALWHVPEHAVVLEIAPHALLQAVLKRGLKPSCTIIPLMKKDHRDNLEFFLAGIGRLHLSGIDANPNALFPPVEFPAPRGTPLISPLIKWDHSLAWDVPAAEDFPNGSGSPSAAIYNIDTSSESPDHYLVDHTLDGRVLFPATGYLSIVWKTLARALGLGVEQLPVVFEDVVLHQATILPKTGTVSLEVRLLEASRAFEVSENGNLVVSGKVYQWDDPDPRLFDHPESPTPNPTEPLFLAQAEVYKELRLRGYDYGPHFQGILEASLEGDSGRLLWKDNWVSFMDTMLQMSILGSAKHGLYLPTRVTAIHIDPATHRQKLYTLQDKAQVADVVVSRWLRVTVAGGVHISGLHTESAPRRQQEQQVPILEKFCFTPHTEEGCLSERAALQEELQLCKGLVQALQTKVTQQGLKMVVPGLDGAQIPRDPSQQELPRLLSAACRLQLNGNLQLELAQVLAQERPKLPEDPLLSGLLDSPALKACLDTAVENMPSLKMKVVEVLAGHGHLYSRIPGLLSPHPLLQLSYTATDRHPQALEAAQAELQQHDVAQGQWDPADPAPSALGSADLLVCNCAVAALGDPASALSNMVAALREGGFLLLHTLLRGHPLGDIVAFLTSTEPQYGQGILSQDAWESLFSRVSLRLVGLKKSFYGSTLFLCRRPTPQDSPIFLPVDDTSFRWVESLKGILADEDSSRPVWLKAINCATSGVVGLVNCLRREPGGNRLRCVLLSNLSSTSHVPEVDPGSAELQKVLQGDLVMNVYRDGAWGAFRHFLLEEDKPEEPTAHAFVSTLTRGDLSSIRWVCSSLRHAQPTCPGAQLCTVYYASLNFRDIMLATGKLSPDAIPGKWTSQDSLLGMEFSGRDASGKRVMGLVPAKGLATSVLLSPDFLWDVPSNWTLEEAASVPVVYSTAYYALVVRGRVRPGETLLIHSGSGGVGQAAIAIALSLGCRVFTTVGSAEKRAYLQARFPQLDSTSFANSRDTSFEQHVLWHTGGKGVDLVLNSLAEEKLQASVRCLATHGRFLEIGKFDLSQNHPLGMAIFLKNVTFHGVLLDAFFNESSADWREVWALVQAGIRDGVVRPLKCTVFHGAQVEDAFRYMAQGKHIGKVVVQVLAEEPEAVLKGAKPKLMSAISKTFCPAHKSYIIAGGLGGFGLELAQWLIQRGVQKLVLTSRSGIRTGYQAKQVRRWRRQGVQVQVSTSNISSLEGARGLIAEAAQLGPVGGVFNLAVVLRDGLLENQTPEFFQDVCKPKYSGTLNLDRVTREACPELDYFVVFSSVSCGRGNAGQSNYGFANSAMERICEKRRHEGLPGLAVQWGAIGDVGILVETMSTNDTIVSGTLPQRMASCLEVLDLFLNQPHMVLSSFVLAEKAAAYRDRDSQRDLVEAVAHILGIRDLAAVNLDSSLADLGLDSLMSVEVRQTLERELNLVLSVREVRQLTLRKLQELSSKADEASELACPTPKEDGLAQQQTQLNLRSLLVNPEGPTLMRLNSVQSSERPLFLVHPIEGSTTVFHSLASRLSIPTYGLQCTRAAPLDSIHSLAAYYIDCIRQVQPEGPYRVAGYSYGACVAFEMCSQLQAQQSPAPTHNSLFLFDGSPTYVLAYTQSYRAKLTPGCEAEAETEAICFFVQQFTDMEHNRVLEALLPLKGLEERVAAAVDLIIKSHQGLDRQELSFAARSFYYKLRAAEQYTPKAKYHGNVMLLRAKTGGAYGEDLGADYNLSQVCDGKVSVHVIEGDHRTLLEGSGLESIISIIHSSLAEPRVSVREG
Chain of Fatty Acid Synthase Keto-reductase Domain (FASN KR) (P49327 whole entry, the tested form may be a part): as the sequence (P49327 whole entry) above

Broadly, the inhibition is the change of the read-out against control, counted positive when it falls. Turning to `O=C(C1CC1)N1CC[C@@H](CN2C(=O)C3(CC3)N=C2c2ccc(-c3cnc4ccccc4c3)cc2F)C1` [compound 257, (R)-6-((1-(cyclopropanecarbonyl)pyrrolidin-3-yl)methyl)-5-(2-fluoro-4-(quinolin-3-yl)phenyl)-4,6-diazaspiro[2.4]hept-4-en-7-one], the inhibition at 10 µM in assay [1] came out at 99%. For the same compound, the IC50 is 49 nM in assay [1], 200 nM in assay [2], 70.8 nM in assay [3] and 263 nM in assay [4].
In the case of `Cc1c(-c2ccc(C3=NC4(CC4)C(=O)N3CC3CN(C(=O)C4CC4)C3)cc2)ccc2c1cnn2C` [compound 491, 6-{[1-(Cyclopropylcarbonyl)azetidin-3-yl]methyl}-5-[4-(1,4-dimethyl-1H-indazol-5-yl)phenyl]-4,6-diazaspiro[2.4]hept-4-en-7-one], in assay [1], the inhibition at 10 µM stood at 100%. Also, the IC50 in the assay on A2780 ovarian cells [5] was 72.4 nM; in assay [3], about 178 nM; in the assay on A2780 ovarian cells [6] it was over 10000 nM; in assay [4], 1000 nM.
For the compound `Cc1cc(-c2cccc3c2cnn3C)ccc1C1=NC2(CC2)C(=O)N1CC1CN(C(=O)C2(C)CC2)C1` [compound 599, 6-({1-[(1-Methylcyclopropyl)carbonyl]azetidin-3-yl}methyl)-5-[2-methyl-4-(1-methyl-1H-indazol-4-yl)phenyl]-4,6-diazaspiro[2.4]hept-4-en-7-one], the inhibition at 10 µM in assay [1] amounted to 102%. In addition, the IC50 with A2780 ovarian cells [5] is 145 nM; in assay [3], 105 nM; in the assay with A2780 ovarian cells [6], 5500 nM; in assay [4], 912 nM.
Taken in the same sequence, the figures for `Cc1cc(-c2ccc3c(c2)ncn3C)ccc1C1=NC2(CC2)C(=O)N1CC1CN(C(=O)C2(O)CC2)C1` [compound 628, 6-({1-[(1-Hydroxycyclopropyl)carbonyl]azetidin-3-yl}methyl)-5-[2-methyl-4-(1-methyl-1H-benzimidazol-5-yl)phenyl]-4,6-diazaspiro[2.4]hept-4-en-7-one] were 100%, 66.1 nM, 162 nM, over 10000 nM and 724 nM.
For `O=C(C1CC1)N1CC[C@@H](CN2C(=O)C3(CC3)N=C2c2ccc(-c3cccc(SC4CC4)c3)cc2F)C1` [compound 641, 6-{[(3R)-1-(Cyclopropylcarbonyl)pyrrolidin-3-yl]methyl}-5-[3′-(cyclopropylsulfanyl)-3-fluorobiphenyl-4-yl]-4,6-diazaspiro[2.4]hept-4-en-7-one] the same measures were 102%, about 2240 nM, about 562 nM, over 10000 nM and 4570 nM.
On to `O=C(C1CC1)N1CC(CN2C(=O)C3(CC3)N=C2c2ccc(-c3nc4cc(Cl)ccc4s3)cc2F)C1` [compound 643, 5-[4-(5-Chloro-1,3-benzothiazol-2-yl)-2-fluorophenyl]-6-{[1-(cyclopropylcarbonyl)azetidin-3-yl]methyl}-4,6-diazaspiro[2.4]hept-4-en-7-one], for which, in assay [1], the inhibition at 10 µM was found to be 96%. The IC50 in assay [1] is 380 nM; with A2780 ovarian cells [5] it was about 676 nM; in assay [3] it was 977 nM; in the assay on A2780 ovarian cells [6], about 10000 nM; in assay [4] it was 3020 nM.
As to `Cc1cc(-c2ccc3cc[nH]c3c2)ccc1C1=NC2(CCCC2)C(=O)N1C[C@@H]1CCN(C(=O)C2CC2)C1` [compound 873, (R)-2-(4-(1H-indol-6-yl)-2-methylphenyl)-3-((1-(cyclopropanecarbonyl)pyrrolidin-3-yl)methyl)-1,3-diazaspiro[4.4]non-1-en-4-one], the inhibition at 10 µM in assay [1] worked out at 109%. Moreover, the IC50 was 63.1 nM in the assay on A2780 ovarian cells [5], 34.7 nM in assay [3], over 10000 nM with A2780 ovarian cells [6] and 263 nM in assay [4].
